According to PubChem BioAssay AID1963953:
Calls of active or inactive are those of the source.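 Rule for the calls: active = compounds cutting recovered intracellular Salmonella colonies below 0.7 of the DMSO level; inactive = the rest.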

Test system: HeLa infected S. Typhimurium SL1344, CFU, 6 h
Assay: reduction of bacterial load in infected HeLa – cell-based, colony forming units, SL1344 (AID 1963953)
Details: at 20 µM; active compounds read low

| SMILES | normalized CFU (DMSO = 1) |
| --- | --- |
| CS(C)=O | 1 (inactive) |
| CC(=O)N1[C@@H]2CC[C@H]1CC(Nc1nc(NCCc3sc(N)nc3C)nc(N3CCn4ncnc4C3)n1)C2 (stereo not given in full) | 0.97 (inactive) |
| CCC(C)(C)C(=O)C(=O)N1CCCC[C@H]1C(=O)N[C@H](CCc1ccc(OC)cc1)C(=O)N1[C@@H]2CC[C@H]1CC(NC(C)=O)C2 (stereo not given in full) | 0.77 (inactive) |
| CCC(C)(C)C(=O)C(=O)N1CCCC[C@H]1C(=O)N[C@H](CCc1ccc(OC)cc1)C(=O)N1[C@@H]2CC[C@H]1CC(Nc1nc(NCCc3ccccc3)nc(N3CCn4ncnc4C3)n1)C2 (stereo not given in full) | 0.47 |
| CCC(C)(C)C(=O)C(=O)N1CCCC[C@H]1C(=O)N[C@H](CCc1ccc(OC)cc1)C(=O)N1[C@@H]2CC[C@H]1CC(Nc1nc(NCCc3sc(N)nc3C)nc(N3CCn4ncnc4C3)n1)C2 (stereo not given in full) | 0.31 |
